Blank lines part the entries; values can stand above or below the compound they belong to.
Tests used:
[1] = Oral bioavailability in human; type: ADME, organism-based; conditions: in vivo
[2] = target: T1, Tyrosine-protein phosphatase non-receptor type 11 (Homo sapiens, UniProt Q06124); test: Inhibition of human SHP2
T1 sequence (Q06124 whole entry): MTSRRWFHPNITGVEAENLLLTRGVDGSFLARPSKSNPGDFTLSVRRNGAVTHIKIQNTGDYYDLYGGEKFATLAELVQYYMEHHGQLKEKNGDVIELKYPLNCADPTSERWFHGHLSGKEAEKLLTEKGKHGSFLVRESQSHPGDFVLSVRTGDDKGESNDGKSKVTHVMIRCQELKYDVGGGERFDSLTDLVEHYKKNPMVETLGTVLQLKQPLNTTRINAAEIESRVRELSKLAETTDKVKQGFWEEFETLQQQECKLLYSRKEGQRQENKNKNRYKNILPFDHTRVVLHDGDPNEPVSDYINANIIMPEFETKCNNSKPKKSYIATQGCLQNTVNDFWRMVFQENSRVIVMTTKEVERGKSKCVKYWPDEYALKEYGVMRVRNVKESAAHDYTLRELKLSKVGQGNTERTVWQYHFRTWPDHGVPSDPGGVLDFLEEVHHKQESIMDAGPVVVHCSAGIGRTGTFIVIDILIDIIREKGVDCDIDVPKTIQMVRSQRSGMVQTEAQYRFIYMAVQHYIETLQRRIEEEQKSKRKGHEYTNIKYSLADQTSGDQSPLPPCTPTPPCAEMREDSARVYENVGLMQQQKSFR

[3] = Oral bioavailability in Sprague-Dawley rat at 10 mg/kg by LC-MS analysis; type: ADME, organism-based; conditions: in vivo
[4] = system: KYSE-520 cell line; test: Antiproliferative activity against human KYSE520 cells assessed as reduction in cell viability by WST-8 assay

bioavailability [1]: 46%
SMILES: CC1(N)CCN(c2cnc(-c3cccc(Cl)c3Cl)c(N)n2)CC1

IC50 [2]: < 0.01 µM
SMILES: C[C@H]1OCC2(CCN(c3cnc(Sc4ccnc(NC(=O)CCCCCCNC(=O)c5cccnc5)c4Cl)c(N)n3)CC2)[C@H]1N

bioavailability [3]: 42.5%
SMILES: CC1(N)CCN(c2cnc3c(Sc4ccncc4Cl)n[nH]c3n2)CC1
IC50 [4]: 5.73 µM
